Assay results as given in US20190233884A1 (University of Southern California, priority 2016, published 2019).

Tested on: patients with refractory metastatic colorectal cancer (mCRC)
Test: PFS, OS and disease control in the training (evaluation) cohort of refractory mCRC patients receiving TAS-102 (n=52, Japan), by baseline characteristics, SNP genotype and toxicity
Assay type: in vivo, human
Experimental: All patients underwent the treatment in salvage-line setting. […]
Genomic DNA was extracted from peripheral whole blood in patients of all cohorts using the QIAmp Kit (Qiagen, Valencia, Calif., USA) according to the manufacturer's protocol (www.qiagen.com). The candidate SNPs were genotyped using PCR-based direct DNA sequence analysis by ABI 3100A Capillary Genetic Analyzer and Sequencing Scanner v1.0 (Applied Biosystems). Amplification of extracted DNA was carried out using both forward and reverse primers for each gene polymorphism as shown in Table 1. […] The investigators analyzing SNPs were blinded to the clinical data of the study patients.
The primary endpoint in this study was progression-free survival (PFS), and the secondary endpoints were overall survival (OS) and disease control rate (DCR). PFS was calculated from the date of starting treatment to the first observation of disease progression or death from any cause. If a patient had no disease progression or death, PFS was censored at the date of last follow up. OS was calculated from the date of starting treatment until the date of death from any cause or the date of the last follow-up, at which point OS was censored. The disease control rate (DCR) was defined as the proportion of patients who achieved a stable disease (SD) or […] according to RECISTv1.1. Chi-square test was used to examine the difference in baseline patient characteristics among the three cohorts. Allelic distribution of all SNPs by ethnicity for deviation from Hardy-Weinberg equilibrium and the allelic frequencies of SNPs were tested using the Chi-square tests with one degree of freedom. The associations between candidate SNPs and disease control, and toxicities were examined using contingency tables and Fisher's exact test. The associations of SNPs with PFS and OS were analysed using Kaplan-Meier curves and the log-rank test. Because the true mode of inheritance of candidate SNPs was not established yet, a codominant or dominant genetic model if appropriate was considered.
All patients underwent the treatment in salvage-line setting. […] In all patients, adverse events were graded according to the Common Terminology Criteria for Adverse Events, version 4.0. […]
Genomic DNA was extracted from peripheral whole blood in patients of all cohorts using the QIAmp Kit (Qiagen, Valencia, Calif., USA) according to the manufacturer's protocol (www.qiagen.com). The candidate SNPs were tested using PCR-based direct DNA sequence analysis by ABI 3100A Capillary Genetic Analyzer and Sequencing Scanner v1.0 (Applied Biosystems). […] The investigators analyzing SNPs were blinded to the clinical data.
The primary endpoint in this study was progression-free survival (PFS), and the secondary endpoints were overall survival (OS) and disease control rate (DCR).

[1] = training cohort, OCT2 rs316019 C/C
[2] = training cohort, hENT1 + OCT2/MATE1 classification: Fair
[3] = training cohort, hENT1rs750370_19 Excellent
[4] = training cohort, hENT1rs750370_19 Faire
[5] = training cohort, hENT1rs750370_19 Faire vs Poor
[6] = training cohort, hENT1rs750370_19 Good
[7] = training cohort, hENT1rs750370_19 Good and Excellent combined
[8] = training cohort, hENT1rs750370_19 Good and Excellent combined vs Poor
[9] = training cohort, hENT1rs750370_19 Poor
[10] = training cohort, hENT1 rs760370, multivariate adjusted for liver metastases and adjuvant history
[11] = training cohort, hENT1 rs760370 A/A
[12] = training cohort, hENT1 rs760370 A/G
[13] = training cohort, hENT1 rs760370 A/G and G/G combined
[14] = training cohort, hENT1 rs760370 A/G and G/G combined vs A/A
[15] = training cohort, hENT1 rs760370 G/G
[16] = training cohort, hENT1 rs760370 any G allele
[17] = training cohort, hENT1 rs760370 any G vs A/A, univariate
[18] = training cohort, hENT1 rs9394992 C/C
[19] = training cohort, hENT1 rs9394992 C/T
[20] = training cohort, hENT1 rs9394992 C/T and T/T combined
[21] = training cohort, hENT1 rs9394992 C/T and T/T combined vs C/C
[22] = training cohort, hENT1 rs9394992 T/T
[23] = training cohort, hENT1 rs9394992 any T allele
[24] = training cohort, hENT1 rs9394992 any T vs C/C, univariate
[25] = training/evaluation cohort, grade 3≤ neutropenia vs less than grade 3, univariate
[26] = training/evaluation cohort, neutropenia less than grade 3 (n=32)
[27] = training/evaluation cohort, patients with grade 3≤ neutropenia (n=20)
[28] = whole training (evaluation) cohort

Trifluridine/tipiracil [TAS-102]
Progression-free Survival HR (95% CI) univariate (training cohort, OCT2 rs316019 C/A and A/A combined vs C/C): 0.74 (0.35, 1.52) | Disease Control Rate PD [1]: 24 (73%) | Disease Control Rate SD [1]: 9 (27%) | Overall Survival Median, months (95% CI) [1]: 8.1 (5.7, 12.4) months | Progression-free Survival Median, months (95% CI) [1]: 2.5 (2.1, 3.4) months | Progression-free Survival HR (95% CI) multivariate (training cohort, adjusted for liver metastasis and adjuvant history, CNT1 rs2290272 A/A genotype): 1.01 (0.38, 2.68) | Progression-free Survival HR (95% CI) multivariate (training cohort, adjusted for liver metastasis and adjuvant history, CNT1 rs2290272 G/A genotype): 0.64 (0.29, 1.39) | Progression-free Survival HR (95% CI) multivariate (training cohort, adjusted for liver metastasis and adjuvant history, CNT1 rs2290272 any A allele): 0.71 (0.33, 1.50) | Progression-free Survival HR (95% CI) multivariate (training cohort, adjusted for liver metastasis and adjuvant history, MATE2 rs16960360 A/C or C/C genotype): 1.07 (0.55, 2.07) | Progression-free Survival HR (95% CI) multivariate (training cohort, adjusted for liver metastasis and adjuvant history, OCT2 rs316000 A/G or G/G genotype): 1.11 (0.48, 2.56) | Progression-free Survival HR (95% CI) multivariate (training cohort, adjusted for liver metastasis and adjuvant history, TK1 rs1065769 C/T or T/T genotype): 1.13 (0.58, 2.18) | OS (training cohort, grade 2< neutropenia (so in the source)): 8.3 months | HR for OS (training cohort, grade 2< vs grade 2> neutropenia): 0.41 | OS (training cohort, grade 2> neutropenia (so in the source)): 4.4 months | OS [2]: 7.2 | PFS [2]: 2.1 months | PFS (training cohort, hENT1 + OCT2/MATE1 classification: Good or Excellent): 3.5 months | OS (training cohort, hENT1 + OCT2/MATE1 classification: Good or Excellent (third value as printed)): 3.4 | OS (training cohort, hENT1 + OCT2/MATE1 classification: Poor (first value)): 8.7 | Disease Control Rate PD [3]: 10 (50%) | Disease Control Rate SD [3]: 10 (50%) | Overall Survival Median, months (95% CI) [4]: 7.2 (2.7, 14.8) months | Progression-free Survival Median, months (95% CI) [4]: 2.1 (1.6, 4.1) months | Overall Survival HR (95% CI) multivariate [5]: 0.37 (0.11, 1.23) | Overall Survival HR (95% CI) univariate [5]: 0.37 (0.12, 1.16) | Progression-free Survival HR (95% CI) multivariate [5]: 0.48 (0.20, 1.16) | Progression-free Survival HR (95% CI) univariate [5]: 0.42 (0.17, 1.03) | Disease Control Rate PD [6]: 2 (67%) | Disease Control Rate SD [6]: 1 (33%) | Overall Survival Median, months (95% CI) [7]: 8.7 (8.1, 15.6) months | Progression-free Survival Median, months (95% CI) [7]: 3.5 (2.5, 4.6) months | Overall Survival HR (95% CI) multivariate [8]: 0.08 (0.02, 0.41) | Overall Survival HR (95% CI) univariate [8]: 0.14 (0.04, 0.48) | Progression-free Survival HR (95% CI) multivariate [8]: 0.28 (0.11, 0.55) | Progression-free Survival HR (95% CI) univariate [8]: 0.26 (0.11, 0.59) | Disease Control Rate PD [9]: 9 (100%) | Disease Control Rate SD [9]: 0 | Overall Survival Median, months (95% CI) [9]: 3.4 (2.7, 6.5) months | Progression-free Survival Median, months (95% CI) [9]: 1.6 (0.9, 2.9) months | PFS (training cohort, hENT1 rs760370 + OCT2 rs316019/MATE1 rs2289669 classification: Poor): 1.6 months | HR for OS [10]: 0.27 | HR for PFS [10]: 0.44 | Disease Control Rate PD [11]: 19 (83%) | Disease Control Rate SD [11]: 4 (17%) | OS [11]: 5.3 months | Overall Survival Median, months (95% CI) [11]: 5.3 (3.1, 12.4) months | PFS [11]: 2.1 months | Progression-free Survival Median, months (95% CI) [11]: 2.1 (1.6, 2.9) months | Disease Control Rate PD [12]: 11 (55%) | Disease Control Rate SD [12]: 9 (45%) | Overall Survival Median, months (95% CI) [13]: 8.7 (8.1, 15.6+) months | Progression-free Survival Median, months (95% CI) [13]: 3.5 (2.5, 4.6) months | Overall Survival HR (95% CI) multivariate [14]: 0.17 (0.05, 0.63) | Overall Survival HR (95% CI) univariate [14]: 0.27 (0.10, 0.70) | Progression-free Survival HR (95% CI) multivariate [14]: 0.44 (0.22, 0.89) | Progression-free Survival HR (95% CI) univariate [14]: 0.44 (0.23, 0.83) | Disease Control Rate PD [15]: 1 (33%) | Disease Control Rate SD [15]: 2 (67%) | OS [16]: 8.7 months | PFS [16]: 3.5 months | HR for OS [17]: 0.27 | HR for PFS [17]: 0.44 | HR for PFS (training cohort, hENT1 rs9394992, multivariate adjusted for liver metastases and adjuvant history): 0.44 | Disease Control Rate PD [18]: 15 (83%) | Disease Control Rate SD [18]: 3 (17%) | OS [18]: 4.4 months | Overall Survival Median, months (95% CI) [18]: 4.4 (2.7, 7.2) months | PFS [18]: 1.9 months | Progression-free Survival Median, months (95% CI) [18]: 1.9 (1.6, 2.7) months | Disease Control Rate PD [19]: 14 (64%) | Disease Control Rate SD [19]: 8 (36%) | Overall Survival Median, months (95% CI) [20]: 8.7 (8.1, 15.6+) months | Progression-free Survival Median, months (95% CI) [20]: 3.4 (2.3, 4.4) months | Overall Survival HR (95% CI) multivariate [21]: 0.20 (0.08, 0.51) | Overall Survival HR (95% CI) univariate [21]: 0.21 (0.08, 0.51) | Progression-free Survival HR (95% CI) multivariate [21]: 0.44 (0.23, 0.86) | Progression-free Survival HR (95% CI) univariate [21]: 0.48 (0.25, 0.91) | Disease Control Rate PD [22]: 2 (33%) | Disease Control Rate SD [22]: 4 (67%) | OS [23]: 8.7 months | PFS [23]: 3.4 months | HR for OS [24]: 0.21 | HR for PFS [24]: 0.48 | HR for OS [25]: 0.59 | HR for PFS [25]: 0.68 | OS [26]: 6.3 months | PFS [26]: 2.1 months | OS [27]: 8.3 months | PFS [27]: 3.4 months | Median OS [28]: 8.0 months | Median PFS [28]: 2.6 months
